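In this assay, cells in 96-well plates receive the compound at five concentrations for 48 hours. Endpoints are linearly interpolated between the surrounding concentrations. Here, GI50 denotes the concentration required for 50% inhibition of growth.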 Activity calls are given as the source filed them. Rule as the data show it: active = GI50 up to about 1.1 µM and inactive = higher.
Key:
Experiment in all cases: NCI-60 cell line screen, 48 h
UACC-62 = tested on: UACC-62
A498 = tested on: A498
ACHN = tested on: ACHN
NCI-H226 = tested on: NCI-H226
A549 = tested on: A549
HT-29 = tested on: HT-29
HCT-116 = tested on: HCT-116
HCC 2998 = tested on: HCC 2998
HOP-18 = tested on: HOP-18
IGROV-1 = tested on: IGROV-1
HCT-15 = tested on: HCT-15
NCI-H460 = tested on: NCI-H460
SK-MEL-28 = tested on: SK-MEL-28
MOLT-4 = tested on: MOLT-4
SK-MEL-2 = tested on: SK-MEL-2
CCRF-CEM = tested on: CCRF-CEM
NCI-H522 = tested on: NCI-H522
HL-60 = tested on: HL-60
K562 = tested on: K562
SK-OV-3 = tested on: SK-OV-3
SN12C = tested on: SN12C
U-251 = tested on: U-251
SF-295 = tested on: SF-295
DMS-273 = tested on: DMS-273
KM12 = tested on: KM12
DMS-114 = tested on: DMS-114
SNB-78 = tested on: SNB-78
RXF 393 = tested on: RXF 393
SNB-19 = tested on: SNB-19
M14 = tested on: M14
UACC-257 = tested on: UACC-257
LXFL 529 = tested on: LXFL 529
TK-10 = tested on: TK-10
Malme-3M = tested on: Malme-3M
LOX IMVI = tested on: LOX IMVI
OVCAR-3 = tested on: OVCAR-3
NCI-H23 = tested on: NCI-H23
SF-268 = tested on: SF-268
UO-31 = tested on: UO-31
OVCAR-8 = tested on: OVCAR-8
M19-MEL = tested on: M19-MEL
XF498 = tested on: XF498
SF-539 = tested on: SF-539
DLD-1 = tested on: DLD-1
SK-MEL-5 = tested on: SK-MEL-5
RPMI-8226 = tested on: RPMI-8226
COLO 205 = tested on: COLO 205
SW-620 = tested on: SW-620
MCF7 = tested on: MCF7
HOP-62 = tested on: HOP-62
SNB-75 = tested on: SNB-75
OVCAR-4 = tested on: OVCAR-4
OVCAR-5 = tested on: OVCAR-5
EKVX = tested on: EKVX
HOP-92 = tested on: HOP-92
NCI/ADR-RES = tested on: NCI/ADR-RES
KM-20L2 = tested on: KM-20L2
RXF 631 = tested on: RXF 631
CAKI-1 = tested on: CAKI-1
786-0 = tested on: 786-0
SR = tested on: SR

With `COc1cc(C2C(Cl)C(=O)N2NC(=O)c2ccccc2O)ccc1O` (stereo not given) the GI50 (UACC-62) was > 100 µM (inactive), the GI50 (A498) was 45.9 µM (inactive) and the GI50 (ACHN) was > 100 µM (inactive). The GI50 (NCI-H226) was > 100 µM (inactive), the GI50 (A549) was > 100 µM (inactive) and the GI50 (HT-29) was > 100 µM (inactive). For the same compound, the GI50 (HCT-116) was > 100 µM (inactive), the GI50 (HCC 2998) was > 100 µM (inactive) and the GI50 (HOP-18) was 34.8 µM (inactive). For the same compound, the GI50 (IGROV-1) was > 100 µM (inactive), the GI50 (HCT-15) was greater than 100 µM and the GI50 (NCI-H460) was > 100 µM (inactive). The GI50 (SK-MEL-28) was > 100 µM (inactive), the GI50 (MOLT-4) was > 100 µM (inactive) and the GI50 (SK-MEL-2) was > 100 µM (inactive). The GI50 (CCRF-CEM) was > 100 µM (inactive), the GI50 (NCI-H522) was > 100 µM (inactive) and the GI50 (HL-60) was > 100 µM (inactive). For the same compound, the GI50 (K562) was > 100 µM (inactive), the GI50 (SK-OV-3) was > 100 µM (inactive) and the GI50 (SN12C) was > 100 µM (inactive). For the same compound, the GI50 (U-251) was > 100 µM (inactive), the GI50 (SF-295) was > 100 µM (inactive) and the GI50 (DMS-273) was > 100 µM (inactive). For the same compound, the GI50 (KM12) was > 100 µM (inactive), the GI50 (DMS-114) was > 100 µM (inactive) and the GI50 (SNB-78) was > 100 µM (inactive). The GI50 (RXF 393) was 0.0612 µM (active), the GI50 (SNB-19) was > 100 µM (inactive) and the GI50 (M14) was > 100 µM (inactive). The GI50 (UACC-257) was > 100 µM (inactive), the GI50 (LXFL 529) was > 100 µM (inactive) and the GI50 (TK-10) was > 100 µM (inactive). For the same compound, the GI50 (Malme-3M) was > 100 µM (inactive), the GI50 (LOX IMVI) was > 100 µM (inactive) and the GI50 (OVCAR-3) was > 100 µM (inactive). For the same compound, the GI50 (NCI-H23) was > 100 µM (inactive), the GI50 (SF-268) was > 100 µM (inactive) and the GI50 (UO-31) was > 100 µM (inactive). The GI50 (OVCAR-8) was 70.8 µM (inactive), the GI50 (M19-MEL) was > 100 µM (inactive) and the GI50 (XF498) was > 100 µM (inactive). For the same compound, the GI50 (SF-539) was > 100 µM (inactive), the GI50 (DLD-1) was > 100 µM (inactive) and the GI50 (SK-MEL-5) was > 100 µM (inactive).
For `CSc1nc2c(ncn2C2OCC(O)C(O)C2O)c(=O)[nH]1` (stereo not given), the GI50 (UACC-62) was > 100 µM (inactive), the GI50 (A498) was > 100 µM (inactive) and the GI50 (RPMI-8226) was > 100 µM (inactive). The GI50 (COLO 205) was > 100 µM (inactive), the GI50 (NCI-H226) was > 100 µM (inactive) and the GI50 (A549) was > 100 µM (inactive). The GI50 (HT-29) was > 100 µM (inactive), the GI50 (HCT-116) was > 100 µM (inactive) and the GI50 (HCC 2998) was > 100 µM (inactive). The GI50 (HOP-18) was > 100 µM (inactive), the GI50 (IGROV-1) was > 100 µM (inactive) and the GI50 (HCT-15) was greater than 100 µM. The GI50 (NCI-H460) was > 100 µM (inactive), the GI50 (SK-MEL-28) was > 100 µM (inactive) and the GI50 (SW-620) was > 100 µM (inactive). For the same compound, the GI50 (MOLT-4) was > 100 µM (inactive), the GI50 (SK-MEL-2) was > 100 µM (inactive) and the GI50 (MCF7) was > 100 µM (inactive). The GI50 (CCRF-CEM) was > 100 µM (inactive), the GI50 (NCI-H522) was > 100 µM (inactive) and the GI50 (HOP-62) was > 100 µM (inactive). The GI50 (HL-60) was > 100 µM (inactive), the GI50 (K562) was > 100 µM (inactive) and the GI50 (SK-OV-3) was > 100 µM (inactive). For the same compound, the GI50 (SN12C) was > 100 µM (inactive), the GI50 (U-251) was > 100 µM (inactive) and the GI50 (SF-295) was > 100 µM (inactive). The GI50 (DMS-273) was > 100 µM (inactive), the GI50 (KM12) was > 100 µM (inactive) and the GI50 (SNB-75) was > 100 µM (inactive). For the same compound, the GI50 (OVCAR-4) was > 100 µM (inactive), the GI50 (OVCAR-5) was > 100 µM (inactive) and the GI50 (DMS-114) was > 100 µM (inactive). For the same compound, the GI50 (EKVX) was > 100 µM (inactive), the GI50 (SNB-78) was > 100 µM (inactive) and the GI50 (RXF 393) was > 100 µM (inactive). The GI50 (SNB-19) was > 100 µM (inactive), the GI50 (UACC-257) was > 100 µM (inactive) and the GI50 (HOP-92) was > 100 µM (inactive). For the same compound, the GI50 (NCI/ADR-RES) was > 100 µM (inactive), the GI50 (Malme-3M) was > 100 µM (inactive) and the GI50 (LOX IMVI) was > 100 µM (inactive). For the same compound, the GI50 (OVCAR-3) was > 100 µM (inactive), the GI50 (NCI-H23) was > 100 µM (inactive) and the GI50 (SF-268) was > 100 µM (inactive). The GI50 (UO-31) was > 100 µM (inactive), the GI50 (OVCAR-8) was > 100 µM (inactive) and the GI50 (M19-MEL) was > 100 µM (inactive). The GI50 (XF498) was > 100 µM (inactive), the GI50 (SF-539) was > 100 µM (inactive) and the GI50 (DLD-1) was > 100 µM (inactive). The GI50 (KM-20L2) was > 100 µM (inactive) and the GI50 (SK-MEL-5) was > 100 µM (inactive).
`CC[C@H]1CNC(=O)CC1CC(=O)OC` (stereo not given in full) was tested, and the GI50 (UACC-62) was > 100 µM (inactive), the GI50 (A498) was > 100 µM (inactive) and the GI50 (RXF 631) was > 100 µM (inactive). The GI50 (ACHN) was > 100 µM (inactive), the GI50 (CAKI-1) was > 100 µM (inactive) and the GI50 (NCI-H226) was > 100 µM (inactive). The GI50 (A549) was > 100 µM (inactive), the GI50 (HT-29) was > 100 µM (inactive) and the GI50 (HCT-116) was > 100 µM (inactive). The GI50 (786-0) was > 100 µM (inactive), the GI50 (HCC 2998) was > 100 µM (inactive) and the GI50 (IGROV-1) was > 100 µM (inactive). For the same compound, the GI50 (HCT-15) was greater than 100 µM, the GI50 (NCI-H460) was > 100 µM (inactive) and the GI50 (SK-MEL-28) was > 100 µM (inactive). For the same compound, the GI50 (SW-620) was > 100 µM (inactive), the GI50 (MOLT-4) was > 100 µM (inactive) and the GI50 (SK-MEL-2) was > 100 µM (inactive). The GI50 (NCI-H522) was > 100 µM (inactive), the GI50 (HOP-62) was > 100 µM (inactive) and the GI50 (SK-OV-3) was > 100 µM (inactive). The GI50 (SN12C) was > 100 µM (inactive), the GI50 (U-251) was > 100 µM (inactive) and the GI50 (SF-295) was > 100 µM (inactive). The GI50 (DMS-273) was > 100 µM (inactive), the GI50 (KM12) was > 100 µM (inactive) and the GI50 (SNB-75) was > 100 µM (inactive). The GI50 (OVCAR-4) was > 100 µM (inactive), the GI50 (OVCAR-5) was > 100 µM (inactive) and the GI50 (DMS-114) was > 100 µM (inactive). The GI50 (EKVX) was > 100 µM (inactive), the GI50 (SNB-78) was > 100 µM (inactive) and the GI50 (RXF 393) was > 100 µM (inactive). For the same compound, the GI50 (SNB-19) was > 100 µM (inactive), the GI50 (M14) was > 100 µM (inactive) and the GI50 (UACC-257) was > 100 µM (inactive). For the same compound, the GI50 (TK-10) was > 100 µM (inactive), the GI50 (Malme-3M) was > 100 µM (inactive) and the GI50 (LOX IMVI) was > 100 µM (inactive). The GI50 (NCI-H23) was > 100 µM (inactive), the GI50 (SR) was > 100 µM (inactive) and the GI50 (SF-268) was > 100 µM (inactive). For the same compound, the GI50 (UO-31) was > 100 µM (inactive), the GI50 (OVCAR-8) was > 100 µM (inactive) and the GI50 (SF-539) was > 100 µM (inactive). For the same compound, the GI50 (DLD-1) was > 100 µM (inactive) and the GI50 (SK-MEL-5) was > 100 µM (inactive).

From ChEMBL document CHEMBL1201862, “PubChem BioAssay data set” (2004)
